Data from patent publication US12539292B2, “BRM targeting compounds and associated methods of use” (Arvinas Operations, Inc., priority 2018, dated 2026).
Where two headings read alike, the source gives them in different places.

Biological target: T1, BRM (Homo sapiens, UniProt P51531)
T1 construct: In-Cell Western Screen of BRM Degradation in SW1573 Cells; endogenous in cells; host or cells: SW1573
Assay: In-cell Western screen of BRM degradation in SW1573 cells (Dmax and DC50)
Format: cell-based
Procedure, shortened: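 Near-infrared imaging on a LI-COR Odyssey (800 and 680 nm channels) quantifies BRM remaining in fixed SW1573 cells. Cells are dosed for 18-20 h at 0.1% final DMSO, and degradation is expressed as Dmax and DC50.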

[1] = BRM degradation, SW1573 cells, Table 2D, read-out: **Dmax (%) (% degraded)
[2] = BRM degradation, SW1573 cells, Table 2D, read-out: *DC50
[3] = SW1573, % degraded, when tested at the top concentration of between 0.3 and 10 μM, read-out: BRM Dmax (%)
[4] = degradation of BRM, read-out: BRM DC50
[5] = BRM degradation, SW1573 cells, read-out: DC50
[6] = target protein degradation, read-out: BRM DC50
[7] = BRM degradation, SW1573 cells, tested at the top concentration of between 0.3 and 10 μM, read-out: Dmax (%) (% degraded)

T1 sequence (P51531 whole entry): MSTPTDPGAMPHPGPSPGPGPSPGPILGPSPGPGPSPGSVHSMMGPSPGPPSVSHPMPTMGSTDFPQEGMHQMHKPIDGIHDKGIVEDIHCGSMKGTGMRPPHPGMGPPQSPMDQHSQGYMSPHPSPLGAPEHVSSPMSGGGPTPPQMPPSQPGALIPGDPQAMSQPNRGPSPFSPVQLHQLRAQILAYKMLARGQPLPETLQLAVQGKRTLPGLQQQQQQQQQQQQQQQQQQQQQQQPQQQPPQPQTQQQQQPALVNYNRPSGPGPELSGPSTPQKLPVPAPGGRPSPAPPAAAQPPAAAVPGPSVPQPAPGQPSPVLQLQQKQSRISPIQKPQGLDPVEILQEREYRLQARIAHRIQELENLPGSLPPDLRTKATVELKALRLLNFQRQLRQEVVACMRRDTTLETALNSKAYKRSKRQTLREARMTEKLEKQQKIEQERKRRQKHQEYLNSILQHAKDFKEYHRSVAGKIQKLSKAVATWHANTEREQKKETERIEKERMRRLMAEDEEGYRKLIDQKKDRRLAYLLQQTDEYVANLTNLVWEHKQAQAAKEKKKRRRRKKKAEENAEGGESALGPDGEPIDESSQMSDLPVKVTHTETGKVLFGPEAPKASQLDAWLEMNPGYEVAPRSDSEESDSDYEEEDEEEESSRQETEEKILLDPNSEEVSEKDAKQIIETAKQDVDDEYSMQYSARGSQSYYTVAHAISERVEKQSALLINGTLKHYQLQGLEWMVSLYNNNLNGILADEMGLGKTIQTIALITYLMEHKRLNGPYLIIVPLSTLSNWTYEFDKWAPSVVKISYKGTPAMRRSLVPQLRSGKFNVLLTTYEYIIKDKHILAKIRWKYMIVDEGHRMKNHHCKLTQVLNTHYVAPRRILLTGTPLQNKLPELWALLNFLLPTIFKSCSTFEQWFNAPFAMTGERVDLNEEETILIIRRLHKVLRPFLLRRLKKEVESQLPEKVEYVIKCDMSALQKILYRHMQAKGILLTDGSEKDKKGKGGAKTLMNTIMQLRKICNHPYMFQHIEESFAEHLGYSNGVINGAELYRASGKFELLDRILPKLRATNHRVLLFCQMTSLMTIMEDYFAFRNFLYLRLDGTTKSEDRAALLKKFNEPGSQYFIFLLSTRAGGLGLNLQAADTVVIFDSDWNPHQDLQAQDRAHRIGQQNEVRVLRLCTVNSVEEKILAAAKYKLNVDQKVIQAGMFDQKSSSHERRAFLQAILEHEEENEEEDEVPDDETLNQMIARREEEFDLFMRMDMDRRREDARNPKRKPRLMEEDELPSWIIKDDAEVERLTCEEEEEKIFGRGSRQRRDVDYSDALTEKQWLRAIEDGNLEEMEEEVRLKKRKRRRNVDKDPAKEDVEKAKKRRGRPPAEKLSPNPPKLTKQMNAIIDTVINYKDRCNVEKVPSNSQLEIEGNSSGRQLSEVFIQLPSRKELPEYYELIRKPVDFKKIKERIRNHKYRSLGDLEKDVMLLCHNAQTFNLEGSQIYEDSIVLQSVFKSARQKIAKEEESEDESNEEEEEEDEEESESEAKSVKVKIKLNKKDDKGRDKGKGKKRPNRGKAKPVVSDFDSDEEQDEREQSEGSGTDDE

Question: How did the Dmax [1] turn out when `Cc1ncsc1-c1ccc([C@H](C)NC(=O)[C@@H]2C[C@@H](O)CN2C(=O)[C@@H](c2cc(OCC[C@@H]3CCN(C[C@H]4C[C@H](Oc5cc(N6C7CCC6CN(c6cc(-c8ccccc8O)nnc6N)C7)ccn5)C4)C[C@@H]3C)no2)C(C)C)cc1` (racemic) [compound 544, (2S,4R)-1-((2R)-2-(3-(2-((3R,4S)-1-(((1r,3R)-3-((4-(3-(3-amino-6-(2-hydroxyphenyl)pyridazin-4-yl)-3,8-diazabicyclo[3.2.1]octan-8-yl)pyridin-2-yl)oxy)cyclobutyl)methyl)-3-methylpiperidin-4-yl)ethoxy)isoxazol-5-yl)-3-methylbutanoyl)-4-hydroxy-N-((S)-1-(4-(4-methylthiazol-5-yl)phenyl)ethyl)pyrrolidine-2-carboxamide] was run?
Answer: > 75%

Question: What about the DC50 [2] of the same compound?
Answer: < 2.5 nM

Question: With `Cc1ncsc1-c1ccc([C@H](C)NC(=O)[C@@H]2C[C@@H](O)CN2C(=O)[C@@H](c2cc(OCCC3(O)CCN(C[C@H]4C[C@H](Oc5cc(N6C7CCC6CN(c6cc(-c8ccccc8O)nnc6N)C7)ccn5)C4)CC3)no2)C(C)C)cc1` [compound 436, (2S,4R)-1-((2R)-2-(3-(2-(1-(((1r,3R)-3-((4-(3-(3-amino-6-(2-hydroxyphenyl)pyridazin-4-yl)-3,8-diazabicyclo[3.2.1]octan-8-yl)pyridin-2-yl)oxy)cyclobutyl)methyl)-4-hydroxypiperidin-4-yl)ethoxy)isoxazol-5-yl)-3-methylbutanoyl)-4-hydroxy-N-((S)-1-(4-(4-methylthiazol-5-yl)phenyl)ethyl)pyrrolidine-2-carboxamide] as the compound, how does the Dmax [3] read?
Answer: > 75%

Question: What about the DC50 [4] of the same compound?
Answer: < 2.5 nM

Question: `Cc1ncsc1-c1ccc([C@H](C)NC(=O)[C@@H]2C[C@@H](O)CN2C(=O)[C@H](c2cc(N3CCC(CN4CCC(O[C@H]5C[C@H](Oc6cc(N7C8CCC7CN(c7cc(-c9ccccc9O)nnc7N)C8)ccn6)C5)CC4)CC3)no2)C(C)C)cc1O` [compound 700, (2S,4R)-1-((2S)-2-(3-(4-((4-((1r,3r)-3-((4-(3-(3-amino-6-(2-hydroxyphenyl)pyridazin-4-yl)-3,8-diazabicyclo[3.2.1]octan-8-yl)pyridin-2-yl)oxy)cyclobutoxy)piperidin-1-yl)methyl)piperidin-1-yl)isoxazol-5-yl)-3-methylbutanoyl)-4-hydroxy-N-((S)-1-(3-hydroxy-4-(4-methylthiazol-5-yl)phenyl)ethyl)pyrrolidine-2-carboxamide] was tested. Which DC50 [5] did it give?
Answer: > 30 nM

Question: For `Cc1ncsc1-c1ccc([C@H](C)NC(=O)[C@@H]2C[C@@H](O)CN2C(=O)[C@H](c2cc(OCCC3CCN(C(=O)[C@H]4C[C@H](CN5CCC([C@H](C)n6cc(-c7cc(-c8ccccc8O)nnc7N)cn6)CC5)C4)CC3)no2)C(C)C)cc1` [compound 453, (2S,4R)-1-((S)-2-(3-(2-(1-((1S,3S)-3-((4-((S)-1-(4-(3-amino-6-(2-hydroxyphenyl)pyridazin-4-yl)-1H-pyrazol-1-yl)ethyl)piperidin-1-yl)methyl)cyclobutane-1-carbonyl)piperidin-4-yl)ethoxy)isoxazol-5-yl)-3-methylbutanoyl)-4-hydroxy-N-((S)-1-(4-(4-methylthiazol-5-yl)phenyl)ethyl)pyrrolidine-2-carboxamide], which Dmax [3] is on record?
Answer: > 75%

Question: And the DC50 [6]?
Answer: < 2.5 nM

Question: Which results are given for `Cc1ncsc1-c1ccc(CNC(=O)[C@@H]2C[C@@H](O)CN2C(=O)[C@@H](NC(=O)CN2CCN(c3ccc(CCOCCCc4cc(N5C6CCC5CN(c5cc(-c7ccccc7O)nnc5N)C6)ccn4)cn3)CC2)C(C)(C)C)cc1` [compound 48, (2S,4R)-1-((2S)-2-(2-(4-(5-(2-(3-(4-(3-(3-amino-6-(2-hydroxyphenyl)pyridazin-4-yl)-3,8-diazabicyclo[3.2.1]octan-8-yl)pyridin-2-yl)propoxy)ethyl)pyridin-2-yl)piperazin-1-yl)acetamido)-3,3-dimethylbutanoyl)-4-hydroxy-N-(4-(4-methylthiazol-5-yl)benzyl)pyrrolidine-2-carboxamide]?
Answer: DC50 [5]: > 30 nM; Dmax (BRM degradation, SW1573 cells, when tested at the top concentration of between 0.3 and 10 μM, read-out: Dmax (%) (% degraded)): > 75%

Question: Which “Dmax (% degraded)” value (BRM degradation, SW1573 cells) does the source give for `Cc1ncsc1-c1ccc([C@H](C)NC(=O)[C@@H]2C[C@@H](O)CN2C(=O)[C@@H](c2cc(N3CCC(CN4CCC(OC5CC(Oc6cc(N7C8CC[C@@H]7CN(c7cc(-c9ccccc9O)nnc7N)C8)ccn6)C5)CC4)CC3)no2)C(C)C)cc1O` (stereo partly drawn) [compound 691, (2S,4R)-1-((2R)-2-(3-(4-((4-((1r,3r)-3-((4-(3-(3-amino-6-(2-hydroxyphenyl)pyridazin-4-yl)-3,8-diazabicyclo[3.2.1]octan-8-yl)pyridin-2-yl)oxy)cyclobutoxy)piperidin-1-yl)methyl)piperidin-1-yl)isoxazol-5-yl)-3-methylbutanoyl)-4-hydroxy-N-((S)-1-(3-hydroxy-4-(4-methylthiazol-5-yl)phenyl)ethyl)pyrrolidine-2-carboxamide] here?
Answer: A (A > 75)

Question: What about the DC50 [5] of the same compound?
Answer: < 2.5 nM

Question: `Cc1ncoc1-c1ccc([C@H](C)NC(=O)[C@@H]2C[C@@H](O)CN2C(=O)[C@@H](c2cc(OCCN3CCC(O[C@H]4C[C@H](Oc5cc(N6C7CCC6CN(c6cc(-c8ccccc8O)nnc6N)C7)ccn5)C4)CC3)no2)C(C)C)cn1` [compound 230, (2S,4R)-1-((2R)-2-(3-(2-(4-((1r,3R)-3-((4-(3-(3-amino-6-(2-hydroxyphenyl)pyridazin-4-yl)-3,8-diazabicyclo[3.2.1]octan-8-yl)pyridin-2-yl)oxy)cyclobutoxy)piperidin-1-yl)ethoxy)isoxazol-5-yl)-3-methylbutanoyl)-4-hydroxy-N-((S)-1-(6-(4-methyloxazol-5-yl)pyridin-3-yl)ethyl)pyrrolidine-2-carboxamide] was tested. Which DC50 [5] did it give?
Answer: < 2.5 nM

Question: What about the Dmax [7] of the same compound?
Answer: > 75%

Question: Which Dmax [3] does the source give for `Cc1ncsc1-c1ccc([C@H](C)NC(=O)[C@@H]2C[C@@H](O)CN2C(=O)[C@H](c2cc(N3CCC(O[C@H]4C[C@H](Oc5cc(N6C7CCC6CN(c6cc(-c8ccccc8O)nnc6N)C7)ccn5)C4)CC3)no2)C(C)C)cc1` [compound 403, (2S,4R)-1-((2S)-2-(3-(4-((1r,3S)-3-((4-(3-(3-amino-6-(2-hydroxyphenyl)pyridazin-4-yl)-3,8-diazabicyclo[3.2.1]octan-8-yl)pyridin-2-yl)oxy)cyclobutoxy)piperidin-1-yl)isoxazol-5-yl)-3-methylbutanoyl)-4-hydroxy-N-((S)-1-(4-(4-methylthiazol-5-yl)phenyl)ethyl)pyrrolidine-2-carboxamide] here?
Answer: > 75%

Question: What about the DC50 [4] of the same compound?
Answer: 2.5 to 10 nM

Question: For `Cc1ncsc1-c1ccc([C@H](C)NC(=O)[C@@H]2C[C@@H](O)CN2C(=O)C(c2cc(OCCN3CCN(CCO[C@H]4C[C@H](OCCN5CCOC6(CCN(c7cc(-c8ccccc8O)nnc7N)CC6)C5)C4)CC3)no2)C(C)C)cc1` (stereo partly drawn) [compound 192, (2S,4R)-1-(2-(3-(2-(4-(2-((1r,3r)-3-(2-(9-(3-amino-6-(2-hydroxyphenyl)pyridazin-4-yl)-1-oxa-4,9-diazaspiro[5.5]undecan-4-yl)ethoxy)cyclobutoxy)ethyl)piperazin-1-yl)ethoxy)isoxazol-5-yl)-3-methylbutanoyl)-4-hydroxy-N-((S)-1-(4-(4-methylthiazol-5-yl)phenyl)ethyl)pyrrolidine-2-carboxamide], which DC50 [5] is on record?
Answer: < 2.5 nM

Question: What about the Dmax [7] of the same compound?
Answer: > 75%

Question: With `Cc1ncsc1-c1ccc([C@H](C)NC(=O)[C@@H]2C[C@@H](O)CN2C(=O)[C@@H](c2cc(OCCCCN3CCN(CCCCOc4cc(N5C6CCC5CN(c5cc(-c7ccccc7O)nnc5N)C6)ccn4)CC3)no2)C(C)C)cc1` [compound 390, (2S,4R)-1-((2R)-2-(3-(4-(4-(4-((4-(3-(3-amino-6-(2-hydroxyphenyl)pyridazin-4-yl)-3,8-diazabicyclo[3.2.1]octan-8-yl)pyridin-2-yl)oxy)butyl)piperazin-1-yl)butoxy)isoxazol-5-yl)-3-methylbutanoyl)-4-hydroxy-N-((S)-1-(4-(4-methylthiazol-5-yl)phenyl)ethyl)pyrrolidine-2-carboxamide] as the compound, how does the Dmax [3] read?
Answer: > 75%

Question: What about the DC50 [6] of the same compound?
Answer: < 2.5 nM

Question: For `Cc1nccn1-c1ccc([C@H](C)NC(=O)[C@@H]2C[C@@H](O)CN2C(=O)[C@H](c2cc(N3CCC(OC4CCN(C[C@H]5C[C@H](Oc6cc(N7C8CCC7CN(c7cc(-c9ccccc9O)nnc7N)C8)ccn6)C5)CC4)CC3)no2)C(C)C)cc1` [compound 477, (2S,4R)-1-((2S)-2-(3-(4-((1-(((1r,3r)-3-((4-(3-(3-amino-6-(2-hydroxyphenyl)pyridazin-4-yl)-3,8-diazabicyclo[3.2.1]octan-8-yl)pyridin-2-yl)oxy)cyclobutyl)methyl)piperidin-4-yl)oxy)piperidin-1-yl)isoxazol-5-yl)-3-methylbutanoyl)-4-hydroxy-N-((S)-1-(4-(2-methyl-1H-imidazol-1-yl)phenyl)ethyl)pyrrolidine-2-carboxamide], which DC50 [6] is on record?
Answer: > 30 nM

Question: How did the DC50 [5] turn out when `Cc1ncsc1-c1ccc([C@@H](COCC(C)C)NC(=O)[C@@H]2C[C@@H](O)CN2C(=O)[C@H](c2cc(OCCN3CCN(CCOc4cc(N5C6CCC5CN(c5cc(-c7ccccc7O)nnc5N)C6)ccn4)CC3)no2)C(C)C)cc1` [compound 297] was run?
Answer: > 30 nM

Question: For `Cc1ncsc1-c1ccc([C@H](C)NC(=O)[C@@H]2C[C@@H](O)CN2C(=O)[C@H](c2cc(N3CCC(OC4CCN(CC5CC(CN6CCC([C@H](C)n7cc(-c8cc(-c9ccccc9O)nnc8N)cn7)CC6)C5)CC4)CC3)no2)C(C)C)cc1` (single isomer, unassigned) [compound 593], which Dmax [1] is on record?
Answer: > 75%

Question: What about the DC50 [2] of the same compound?
Answer: < 2.5 nM
